Results: paper PMC6160049 (PLoS ONE, 2018)
Each block holds one compound with its values, some of them ahead of it.

Experiments:
in vitro = test: in vitro
From the text: (§1) Female Sprague Dawley rats were purchased from Charles River (QC, Canada). Rats were housed at the Laurentian University Animal Care Facility and supplied with food and water ad libitum. All experimental protocols were approved by the Health Sciences North Research Institute biosafety committee and the Laurentian University animal care committee. Blood was collected from rats under a surgical plane of anesthesia using isoflurane via cardiac puncture. Rats were then euthanized by excess isoflurane in addition to the severing of the descending aorta and cutting of the diaphragm. Blood was immediately mixed with an ethylenediaminetetraacetic acid solution (Fisher Scientific, Fairlawn NJ,0.1 M, 5 mM final concentration) and stored on ice until being centrifuged at 2,100 x G and 4 °C for 10 minutes. The top plasma layer was removed, aliquoted and stored at -80 °C.
(§2) Dynantin samples were analyzed at a constant solvent flow rate of 0.7 mL/min at 35 °C using a binary gradient (Table 1). Solvent A consisted of a 25% solution of acetonitrile (HPLC grade Fisher Scientific) in ddH2O (0.2 μm filtered) and solvent B consisted of acetonitrile, with each solvent containing 0.1% trifluoroacetic acid (v/v, protein sequencing grade, Sigma Aldrich, Fairlawn NJ).
(§3) MDP samples were analyzed at a constant solvent flow rate of 1.0 mL/min at 35 °C using a binary gradient (Table 2). Solvent A consisted of ddH2O (0.2 μm filtered) and solvent B consisted of methanol (MeOH) (HPLC grade, Fisher Scientific, Fairlawn NJ), with each solvent containing 0.1% formic acid (v/v, LC/MS grade, Fisher Scientific).

[1] = Peptide with mannose lipid (ML-C14) plasma stability analysis; conditions: for dynantin remaining in rat plasma / dynantin degradation in rat plasma: 37 °C, RP-HPLC, UV 210 nm; for dynantin remaining in rat plasma: relative to T-zero; for dynantin degradation in rat plasma: 48 h
From the text: as §1, §2, §3
Peptide stability in combination with ML-C14 was investigated using a modified version of the above noted procedure. Aliquots of dynantin or MDP were first combined with varying amounts of ML-C14 (in THF, 20 μL total addition), and then thoroughly mixed before the addition of thawed rat plasma (88 μL). A control sample was also prepared by combining each peptide with THF alone (20 μL) and plasma (88 μL). Samples were incubated at 37 °C in a heating mantle for varying lengths of time before being stored at -80 °C. For HPLC analysis, samples were thawed, thoroughly mixed, diluted in MeOH to destroy liposome particles (1/10 for dynantin, 1/5 for MDP), and solids pelleted by centrifugation at 10,000 rpm and 20 °C for 5 min. The supernatants were carefully removed for analysis (8 μL injections, in duplicate). Stability is represented as the percentage of peptide remaining relative to the amount determined at T-zero.

thawed rat plasma = conditions: Female Sprague Dawley rats, 37 °C, up to 24 hours

degradation of MDP in rat plasma (in vitro): completely degraded
metabolised at 12 h (in vitro; female, Sprague Dawley, rat, plasma): ~60%
degradation of MDP in rat plasma [1]: Complete degradation
Compound: CC(=O)N[C@H]1C(O)O[C@H](CO)[C@@H](O)[C@@H]1O[C@H](C)C(=O)N[C@@H](C)C(=O)N[C@H](CCC(=O)O)C(N)=O (stereo partly shown) [MDP, muramyl dipeptide]

Compound: CC[C@H](C)[C@H](NC(=O)[C@H](CCCN=C(N)N)NC(=O)[C@H](CCCN=C(N)N)NC(=O)[C@H](CC(C)C)NC(=O)[C@H](Cc1ccccc1)NC(=O)CNC(=O)CNC(=O)[C@@H](C)Cc1c(C)cc(O)cc1C)C(=O)N[C@@H](CCCN=C(N)N)C(=O)N1CCC[C@H]1C(=O)N[C@@H](CCCCN)C(N)=O [dynantin]
degradation of dynantin in rat plasma (in vitro; peptide alone, EDTA rat plasma, 37 °C, 12 h, RP-HPLC, UV 210 nm, relative to T-zero, three experiments): complete dynantin degradation
dynantin remaining in rat plasma ([1]; with ML-C14, peptide:glycolipid 1:4, EDTA rat plasma 88 μL, 12 h, diluted 1/10 in MeOH, mean ± SEM of three experiments): 21 ± 4%
dynantin remaining in rat plasma ([1]; with ML-C14, peptide:glycolipid 1:4, rat plasma, 24 h): no detectable peptide
dynantin remaining in rat plasma ([1]; with ML-C14, peptide:glycolipid 1:8, rat plasma, 12 h, mean ± SEM of three experiments): 62 ± 4%
dynantin remaining in rat plasma ([1]; with ML-C14, peptide:glycolipid 1:8, rat plasma, 24 h, mean ± SEM of three experiments): 20 ± 3%
dynantin degradation in rat plasma ([1]; with ML-C14, peptide:glycolipid 1:8, rat plasma): completely degraded
dynantin remaining in rat plasma ([1]; with ML-C14, peptide:glycolipid 1:10, rat plasma, 12 h, mean ± SEM of three experiments): 66 ± 6%
dynantin remaining in rat plasma ([1]; with ML-C14, peptide:glycolipid 1:10, rat plasma, 24 h, mean ± SEM of three experiments): 19 ± 4%
dynantin degradation in rat plasma ([1]; with ML-C14, peptide:glycolipid 1:10, rat plasma): completely degraded

cleaved bond (thawed rat plasma): L-R and R-R, major and R-I
Compound: (2S)-Mdp-G-G-F-L-R-R-I-R-P-K-NH2
